Measurements as given in patent US4593090A, “Novel nitrosourea compounds, method for preparing same, and pharmaceutical composition containing same” (Gogo Kimura, priority 1981, dated 1986).

Columns and labels:
[1] = Acute toxicity (LD50, Behrens-Karber method); assay type: in vivo, ICR mice; details: mouse, in vivo, ip, mortality during 30 days
Description: Test compounds, dissolved or suspended in 0.5% aqueous CMC, were each intraperitoneally administered to ICR mice in a dose of 0.1 ml per 10 g body weight. LD50 (mg/kg) value of each test compound was calculated from the mortality of mice during 30 days by the Behrens-Karber method.

Leukemia L1210 [2] = experiment: Activity against Leukemia L1210, oral, increase in life span of mice; assay type: in vivo, female mice (BDF1 family); details: for ED (maximum ILS) / ED30: Mus musculus, L1210, oral once a day for 5 successive days; for ED (maximum ILS): daily dosage giving maximum increase of life span, read-out: O.D. (optimum dosage); for ED30: daily dosage increasing average survival days by 30%, read-out: ILS30; for Survivors after 60 days / Max. ILS % / Therapeutic ratio TR: oral; for Survivors after 60 days: 6-membered group; for Max. ILS %: 60-day observation, versus control; for Therapeutic ratio TR: O.D./ILS30
Description: Tests were conducted in accordance with the method for measuring antitumor activity of National Cancer Center Tokyo (A, Hoshi et al, Farumashia 9 464 (1973)). Test compounds were each intraperitoneally (referred to as ip) or orally (referred to as op) administered once a day for 5 successive days to a 6-membered group of femal mice (BDF1 family, each weighing 20 to 23 g) 24 hours after 1×10^5 cells of Leukemia L1210 have been implantated into the abdominal cavities of the mice, and the effect was evaluated by comparing the survival days of treated groups with those of an untreated group of mice (control group) in 60-day observation. An increase percentage of life span (ILS%) was calculated from said average survival days compared with those of the control group. Further, therapeutic ratio (O.D./ILD30, referred to as T.R.) of each tested compound was calculated from the daily dosage of the compound necessary to increase said average survival days by 30% as compared with the control group (this dosage is referred to as ILS 30) and the daily dosage giving a maximum increase of life span to mice implantated with L1210 cells, namely an optimum dosage (referred to as O.D.). The results of five successive days intraperitoneal administrations of test compounds were shown in Tables I to III, and those of five successive oral administrations in Table IV.

Leukemia L1210 [3] = experiment: Activity against Leukemia L1210, intraperitoneal, increase in life span of mice; assay type: in vivo, female mice (BDF1 family); details: for ED (maximum ILS) / ED30: Mus musculus, L1210, ip, ip once a day for 5 successive days; for ED (maximum ILS): daily dosage giving maximum increase of life span, read-out: O.D. (optimum dosage); for ED30: daily dosage increasing average survival days by 30%, read-out: ILS30; for Survivors after 60 days / Max. ILS % / Therapeutic ratio TR: ip; for Survivors after 60 days: 6-membered group; for Max. ILS %: 60-day observation, versus control; for Therapeutic ratio TR: O.D./ILS30
Summary of the method: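 Beginning 24 hours after intraperitoneal implantation of 1×10^5 leukemia cells, six-mouse groups of female BDF1 mice receive the test compound once daily for five consecutive days by the ip or oral route. Survival is recorded up to 60 days and compared with untreated controls.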

Structure (SMILES) | LD50 at 720 h [1] [mg/kg] | ED (maximum ILS) (Leukemia L1210 [2]) [mg/kg] | ED30 (Leukemia L1210 [2]) [mg/kg] | Survivors after 60 days (Leukemia L1210 [2]) | Max. ILS % (Leukemia L1210 [2]) [%] | Therapeutic ratio TR (Leukemia L1210 [2]) | ED (maximum ILS) (Leukemia L1210 [3]) [mg/kg] | ED30 (Leukemia L1210 [3]) [mg/kg] | Survivors after 60 days (Leukemia L1210 [3]) | Max. ILS % (Leukemia L1210 [3]) [%] | Therapeutic ratio TR (Leukemia L1210 [3])
CCOCCO[C@H]1O[C@H](CN(C(=O)N(CCCl)N=O)C(C)C)[C@H](O)[C@H](O)[C@H]1O [Compound 113, 3-isopropyl-3-(2-ethoxyethyl α-D-galactopyranose-6-yl)-1-(2-chloroethyl)-1-nitrosourea] | 450 | 180 | 7.32 | 6/6 | > 700 | 24.6 | 150 | 2.23 | 6/6 | > 700 | 67.3
CCOCCN(C(=O)N(CCCl)N=O)[C@H]1[C@@H](OCC(C)C)O[C@H](CO)[C@H](O)[C@@H]1O [Compound 123, 3-(2-ethoxyethyl)-3-(isobutyl α-D-galactopyranose-2-yl)-1-(2-chloroethyl)-1-nitrosourea] | 730 | 240 | 13.2 | 3/6 | > 360 | 18.2 | 200 | 4.98 | 3/6 | > 365 | 40.2
COCC(C)N(C(=O)N(CCCl)N=O)[C@H]1[C@@H](O)[C@@H](CO)O[C@H](OCC(C)C)[C@@H]1O (stereo partly drawn) [Compound 126, 3-(1-methyl-2-methoxyethyl)-3-(isobutyl α-D-galactopyranose-3-yl)-1-(2-chloroethyl)-1-nitrosourea] | 785 | 240 | 15.4 | 3/6 | > 350 | 15.6 | 250 | 6.22 | 3/6 | > 355 | 40.2
COCC(C)N(C[C@H]1O[C@H](OC2CCCCC2)[C@@H](O)[C@@H](O)[C@H]1O)C(=O)N(CCCl)N=O (stereo partly drawn) [Compound 145, 3-(1-methyl-2-methoxyethyl)-3-(cyclohexyl α-D-talopyranose-6-yl)-1-(2-chloroethyl)-1-nitrosourea] | 580 | 200 | 10.9 | 4/6 | > 450 | 18.3 | 170 | 2.91 | 6/6 | > 700 | 58.4
COC(C)CN(C(=O)N(CCCl)N=O)[C@H]1CO[C@@H](OCC(C)C)[C@H](O)[C@H]1O (stereo partly drawn) [Compound 153, 3-(2-methoxy-n-propyl)-3-(isobutyl α-L-arabinopyranose-4-yl)-1-(2-chloroethyl)-1-nitrosourea] | 480 | 180 | 10.8 | 4/6 | > 425 | 16.7 | 150 | 2.57 | 5/6 | > 625 | 58.4
O=NN(CCCl)C(=O)N(CC1CCCO1)[C@H]1[C@H](OC2CCCCC2)OC[C@H](O)[C@@H]1O (stereo partly drawn) [Compound 156, 3-tetrahydrofurfuryl-3-(cyclohexyl α-L-arabinopyranose-2-yl)-1-(2-chloroethyl)-1-nitrosourea] | 480 | 180 | 9.78 | 4/6 | > 460 | 18.4 | 150 | 2.45 | 6/6 | > 700 | 61.2
COC(C)CN(C(=O)N(CCCl)N=O)[C@@H]1[C@@H](OCC(C)C)OC[C@@H](O)[C@H]1O (stereo partly drawn) [Compound 159, 3-(2-methoxy-n-propyl)-3-(isobutyl α-D-arabinopyranose-2-yl)-1-(2-chloroethyl)-1-nitrosourea] | 520 | 180 | 10.9 | 5/6 | > 625 | 16.5 | 160 | 2.61 | 6/6 | > 700 | 61.3
CC(C)CN(C[C@H]1O[C@@H](OC2CCCCC2)[C@@H](O)[C@@H]1O)C(=O)N(CCCl)N=O [Compound 161, 3-isobutyl-3-(cyclohexyl β-D-arabinofuranose-5-yl)-1-(2-chloroethyl)-1-nitrosourea] | 460 | 180 | 12.7 | 3/6 | > 350 | 14.2 | 150 | 3.18 | 4/6 | > 440 | 47.2
COCCCO[C@@H]1O[C@H](CN(CC(C)C)C(=O)N(CCCl)N=O)[C@@H](O)[C@H]1O [Compound 167, 3-isobutyl-3-(3-methoxy-n-propyl β-D-ribofuranose-5-yl)-1-(2-chloroethyl)-1-nitrosourea] | 510 | 180 | 12 | 4/6 | > 450 | 15.0 | 160 | 3.17 | 4/6 | > 430 | 50.5
CC(C)CN(C[C@@H]1O[C@@H](OC2CCCCC2)[C@H](O)[C@@H]1O)C(=O)N(CCCl)N=O [Compound 171, 3-isobutyl-3-(cyclohexyl α-L-lyxofuranose-5-yl)-1-(2-chloroethyl)-1-nitrosourea] | 450 | 190 | 11.7 | 4/6 | > 450 | 16.2 | 150 | 3.3 | 4/6 | > 440 | 45.5
COCCCO[C@H]1O[C@H](CN(C(=O)N(CCCl)N=O)C2CCCCC2)[C@@H](O)[C@H](O)[C@H]1O [Compound 174, 3-cyclohexyl-3-(3-methoxy-n-propyl α-D-glucopyranose-6-yl)-1-(2-chloroethyl)-1-nitrosourea] | 610 | 230 | 9.66 | 5/6 | > 620 | 23.8 | 180 | 2.78 | 6/6 | > 700 | 64.8
